Test results taken from PubChem BioAssay AID1963983 (Molecular Pharmacology Branch, DTP, NCI, 2024).
pIC50: −log10 of the molar value.

Tested on: 186277-243-T-J2-PDC multi-cell spheroid viability
Assay: Anticancer human tumor 186277-243-T-J2-PDC patient-derived colon adenocarcinoma cell line growth inhibition [PI3K]
Settings: for viability, T/C: stronger effect = lower value; for pIC50: curve of first compound
Outline: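 We assembled tumor spheroids that included a stromal compartment of HUVEC and MSCs, then exposed them to targeted agents alone and together with PI3K pathway inhibitors. Concentration series descended by half-log from clinically achievable Cmax levels. Viability served as the endpoint.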
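Also: spheroids exposed to compounds for seven days before viability reading.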
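For viability, T/C in this document: 100% = DMSO vehicle control viability.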

How did the viability, T/C (compound 0.0316 µM) turn out when `CC1(C)CCC(CN2CCN(c3ccc(C(=O)NS(=O)(=O)c4ccc(NCC5CCOCC5)c([N+](=O)[O-])c4)c(Oc4cnc5[nH]ccc5c4)c3)CC2)=C(c2ccc(Cl)cc2)C1` was run?
The viability, T/C was 98% [middle of 4 runs].

And the viability, T/C (compound 0.1 µM)?
Its viability, T/C is 105% [middle of 4 runs].

And the viability, T/C (compound 0.316 µM)?
Its viability, T/C is 100% [middle of 4 runs].

What about the viability, T/C (compound 1 µM) of the same molecule?
The viability, T/C was 97.9% [middle of 4 runs].

`CC(Cn1ccc(-c2ccc(C#N)c(Cl)c2)n1)NC(=O)c1cc(C(C)O)[nH]n1` (stereo unspecified) + Cc1nc(NC(=O)N2CCCC2C(N)=O)sc1-c1ccnc(C(C)(C)C(F)(F)F)c1 was tested. Which pIC50 (second compound 0.0316 µM) did it give?
The pIC50 was < 5.00.

And the pIC50 (second compound 0.1 µM)?
Its pIC50 is < 5.00.

What about the pIC50 (second compound 0.316 µM) of the same molecule?
The pIC50 was < 5.00.

And the pIC50 (second compound 1 µM)?
Its pIC50 is < 5.00.

What about the pIC50 (second compound 3.16 µM) of the same molecule?
The pIC50 was < 5.00.

And the pIC50 (second compound 10 µM)?
The pIC50 was > 7.50.

What about the viability, T/C (second compound 0.0316 µM, first compound 0.0316 µM) of the same molecule?
Its viability, T/C is 99.2%.

And the viability, T/C (second compound 0.0316 µM, first compound 0.1 µM)?
The viability, T/C was 96.7%.

And the viability, T/C (second compound 0.0316 µM, first compound 0.316 µM)?
Its viability, T/C is 98.5%.

What about the viability, T/C (second compound 0.0316 µM, first compound 1 µM) of the same molecule?
The viability, T/C was 93%.

And the viability, T/C (second compound 0.0316 µM, first compound 3.16 µM)?
The viability, T/C was 116%.

And the viability, T/C (second compound 0.0316 µM, first compound 10 µM)?
Its viability, T/C is 107%.

And the viability, T/C (second compound 0.1 µM, first compound 0.0316 µM)?
Its viability, T/C is 112%.

And the viability, T/C (second compound 0.1 µM, first compound 0.1 µM)?
The viability, T/C was 103%.

And the viability, T/C (second compound 0.1 µM, first compound 0.316 µM)?
The viability, T/C was 88.6%.

What about the viability, T/C (second compound 0.1 µM, first compound 1 µM) of the same molecule?
The viability, T/C was 109%.

And the viability, T/C (second compound 0.1 µM, first compound 3.16 µM)?
The viability, T/C was 107%.

What about the viability, T/C (second compound 0.1 µM, first compound 10 µM) of the same molecule?
Its viability, T/C is 122%.

What about the viability, T/C (second compound 0.316 µM, first compound 0.0316 µM) of the same molecule?
Its viability, T/C is 99.7%.

And the viability, T/C (second compound 0.316 µM, first compound 0.1 µM)?
The viability, T/C was 97.6%.

What about the viability, T/C (second compound 0.316 µM, first compound 0.316 µM) of the same molecule?
Its viability, T/C is 103%.

What about the viability, T/C (second compound 0.316 µM, first compound 1 µM) of the same molecule?
The viability, T/C was 116%.

And the viability, T/C (second compound 0.316 µM, first compound 3.16 µM)?
Its viability, T/C is 105%.

What about the viability, T/C (second compound 0.316 µM, first compound 10 µM) of the same molecule?
Its viability, T/C is 97.5%.

What about the viability, T/C (second compound 1 µM, first compound 0.0316 µM) of the same molecule?
The viability, T/C was 103%.

And the viability, T/C (second compound 1 µM, first compound 0.1 µM)?
The viability, T/C was 92.8%.

And the viability, T/C (second compound 1 µM, first compound 0.316 µM)?
The viability, T/C was 86%.

What about the viability, T/C (second compound 1 µM, first compound 1 µM) of the same molecule?
The viability, T/C was 97.9%.

What about the viability, T/C (second compound 1 µM, first compound 3.16 µM) of the same molecule?
The viability, T/C was 86.8%.

And the viability, T/C (second compound 1 µM, first compound 10 µM)?
The viability, T/C was 88.3%.

What about the viability, T/C (second compound 3.16 µM, first compound 0.0316 µM) of the same molecule?
Its viability, T/C is 56.5%.

What about the viability, T/C (second compound 3.16 µM, first compound 0.1 µM) of the same molecule?
The viability, T/C was 60.2%.

What about the viability, T/C (second compound 3.16 µM, first compound 0.316 µM) of the same molecule?
Its viability, T/C is 54.2%.

What about the viability, T/C (second compound 3.16 µM, first compound 1 µM) of the same molecule?
Its viability, T/C is 58.9%.

What about the viability, T/C (second compound 3.16 µM, first compound 3.16 µM) of the same molecule?
Its viability, T/C is 50.7%.

And the viability, T/C (second compound 3.16 µM, first compound 10 µM)?
Its viability, T/C is 54.8%.

What about the viability, T/C (second compound 10 µM, first compound 0.0316 µM) of the same molecule?
Its viability, T/C is 21.6%.

What about the viability, T/C (second compound 10 µM, first compound 0.1 µM) of the same molecule?
Its viability, T/C is 14.2%.

What about the viability, T/C (second compound 10 µM, first compound 0.316 µM) of the same molecule?
Its viability, T/C is 18.5%.

What about the viability, T/C (second compound 10 µM, first compound 1 µM) of the same molecule?
The viability, T/C was 17.1%.

What about the viability, T/C (second compound 10 µM, first compound 3.16 µM) of the same molecule?
Its viability, T/C is 15.8%.

What about the viability, T/C (second compound 10 µM, first compound 10 µM) of the same molecule?
Its viability, T/C is 12.7%.
